From patent US20240132492A1, “PYRIDOPYRIMIDINE-BASED COMPOUND AND APPLICATION THEREOF” (JINAN UNIVERSITY, priority 2021, published 2024)

Columns and labels:
Type in all cases: cell-based
AKT1 = molecular target: T1, AKT1 (Homo sapiens, UniProt P31749); assay: Western Blot, degradation of AKT1 protein in H1975-OR cells; details: 1000 nM, 24 hours, maximum degradation rate
T1 construct: AKT1, AKT2, and AKT3 proteins in H1975-OR cells; endogenous in cells; host or cells: H1975-OR (osimertinib-resistant H1975)
Description: (§1) Cell line: Non-small cell lung cancer H1975-OR cell line, which is an Osimertinib resistant H1975 cell line, and could be obtained through low dose gradual addition culture. Specific method: H1975 cells were spread in a 10 cm culture dish at a convergence rate of 60-70%, added 50 nM of Osimertinib to the culture medium. After the cell state stabilized, the concentration of Osimertinib was gradually double to 3 μM.
(§2) Conventional Western Blot (immunoblotting) was used for detection, as follows: a certain number of H1975-OR cells were planted on a 96 well plate, adherent cultured in an incubator overnight, and added a certain concentration of compound to act for 24 hours. 1×SDS lysis buffer with protease and phosphatase inhibitors was used to lyse cells. Cell lysates were separated by SDS-PAGE and transferred to PVDF membrane. Then, at room temperature, the PCDF membrane was taken out and immersed in a sealing solution (5% BSA TBS solution containing 0.5% Tween-20) for sealing treatment for 1 hour, and then incubated with a specific primary antibody at 4° C. overnight. The imprints were washed with TBST and incubated with horseradish peroxidase (HRP) labeled secondary antibodies at room temperature for 2 hours. Finally, ECL plus fluorescence detection reagent (Thermo Scientific, Waltham, MA) was used for protein development, and the Amersham Imager 600 system (GE, America) was used for photography. The detection results were processed using ImageJ software to obtain the grayscale value G (Density).

AKT2 = molecular target: T2, AKT2 (Homo sapiens, UniProt P31751); assay: Western Blot, degradation of AKT2 protein in H1975-OR cells; details: 1000 nM, 24 hours, maximum degradation rate
T2 construct: AKT1, AKT2, and AKT3 proteins in H1975-OR cells; endogenous in cells; host or cells: H1975-OR (osimertinib-resistant H1975)
Description: as §1, §2

H1975 = assay: CCK-8 tumor cell proliferation, H1975; details: Homo sapiens, NCI-H1975, H1975 cells, 72 hours
Description: (§3) Tumor cells (see Table 2 to Table 5) were inoculated in 96-well plates in complete culture medium (2000-3000 cells/well). After overnight incubation, the compounds with different concentrations (0.000508 μM-10 μM) were used to treat the cells separately for 72 hours. CCK-8 (Cell Counting Kit 8, Dojindo Laboratories, Kumamoto, Japan) experiment was used to evaluate cell proliferation. GraphPad Prism 5.0 software (La Jolla, CA) was used to calculate the half-maximal inhibitory concentration (IC50) values by fitting the concentration response curve. Each IC50 value was represented as an average value±SD.

H1975OR = assay: CCK-8 tumor cell proliferation, H1975OR; details: H1975OR cells (Osimertinib resistant), 72 hours
Description: as §1, §3

AKT3 = AKT3 (Homo sapiens, UniProt Q9Y243); assay: Western Blot, degradation of AKT3 protein in H1975-OR cells; set-up: endogenous in cells; host or cells: H1975-OR (osimertinib-resistant H1975); details: 1000 nM, 24 hours, maximum degradation rate
Description: as §1, §2

PC-9 = assay: CCK-8 tumor cell proliferation, PC-9; details: Homo sapiens, PC-9 cells, 72 hours
Description: as §3

A431 = assay: CCK-8 tumor cell proliferation, A431; details: Homo sapiens, A-431, A431 cells, 72 hours
Description: as §3

T2 sequence (P31751 whole entry): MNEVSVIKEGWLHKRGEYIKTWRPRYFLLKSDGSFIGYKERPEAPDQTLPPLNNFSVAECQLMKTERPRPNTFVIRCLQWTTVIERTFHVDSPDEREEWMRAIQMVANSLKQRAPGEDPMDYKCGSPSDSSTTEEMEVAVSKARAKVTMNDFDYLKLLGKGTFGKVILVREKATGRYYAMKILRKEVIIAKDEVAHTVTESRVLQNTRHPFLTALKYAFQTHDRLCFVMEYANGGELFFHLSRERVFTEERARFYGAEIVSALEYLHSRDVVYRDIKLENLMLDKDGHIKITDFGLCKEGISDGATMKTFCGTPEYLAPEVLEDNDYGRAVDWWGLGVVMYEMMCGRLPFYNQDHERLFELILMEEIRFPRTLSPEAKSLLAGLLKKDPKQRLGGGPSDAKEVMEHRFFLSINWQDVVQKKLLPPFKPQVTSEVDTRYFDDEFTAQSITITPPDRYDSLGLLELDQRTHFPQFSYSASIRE
T1 sequence (P31749 whole entry): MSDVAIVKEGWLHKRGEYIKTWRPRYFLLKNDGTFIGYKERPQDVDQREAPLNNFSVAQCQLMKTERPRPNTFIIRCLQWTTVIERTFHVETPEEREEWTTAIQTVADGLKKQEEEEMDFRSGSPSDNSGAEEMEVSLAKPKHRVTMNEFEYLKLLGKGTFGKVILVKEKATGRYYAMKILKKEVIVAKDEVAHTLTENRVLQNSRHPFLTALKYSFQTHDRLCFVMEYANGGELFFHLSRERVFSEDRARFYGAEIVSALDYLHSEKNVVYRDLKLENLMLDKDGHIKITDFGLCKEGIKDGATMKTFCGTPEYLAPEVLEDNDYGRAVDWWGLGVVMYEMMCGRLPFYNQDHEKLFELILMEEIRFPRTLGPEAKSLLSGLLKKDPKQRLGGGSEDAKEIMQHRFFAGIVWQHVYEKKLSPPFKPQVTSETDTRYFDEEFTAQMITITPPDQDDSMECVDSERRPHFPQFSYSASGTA
AKT3, sequence (Q9Y243 whole entry): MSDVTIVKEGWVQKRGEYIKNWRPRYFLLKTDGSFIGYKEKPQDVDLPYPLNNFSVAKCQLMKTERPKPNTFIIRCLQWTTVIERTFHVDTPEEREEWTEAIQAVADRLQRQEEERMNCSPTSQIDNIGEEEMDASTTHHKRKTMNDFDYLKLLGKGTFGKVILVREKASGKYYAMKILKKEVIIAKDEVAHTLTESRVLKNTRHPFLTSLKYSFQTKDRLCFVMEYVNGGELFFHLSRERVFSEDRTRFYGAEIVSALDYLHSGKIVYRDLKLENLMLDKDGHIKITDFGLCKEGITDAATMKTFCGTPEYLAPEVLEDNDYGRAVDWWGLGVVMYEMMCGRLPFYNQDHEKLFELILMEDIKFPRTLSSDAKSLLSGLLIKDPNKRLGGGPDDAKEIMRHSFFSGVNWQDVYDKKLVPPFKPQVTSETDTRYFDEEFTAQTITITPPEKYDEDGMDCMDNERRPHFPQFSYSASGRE

SMILES | Dmax at 1 µM (AKT1) | Dmax at 1 µM (AKT2) | IC50 (H1975) | IC50 (H1975OR) | Dmax at 1 µM (AKT3) | IC50 (PC-9) | IC50 (A431)
COc1cc(N2CCN(CCCCCCCCNC(=O)CC34CC5CC(CC(C5)C3)C4)CC2)ccc1Nc1ncc2c(C)cc(=O)n(-c3cccc(NC(=O)C4CC4)c3)c2n1 [ZX-HYT-47, N-(3-(2-((4-(4-(8-(2-((3R, 5R, 7R)-adamantan-1-yl)acetylamino)octyl)piperazin-1-yl)-2-methoxyphenyl))amino)-5-methyl-7-oxypyridino [2,3-d]pyrimidin-8 (7H)-yl) phenyl) cyclopropane formamide] | 0% | 0% | 0.0365 ± 0.0012 µM | 0.0224 ± 0.0127 µM | 67.5% |  | 
COc1cc(N2CCN(CCCCCCCCNC(=O)C3CCC(F)(F)CC3)CC2)ccc1Nc1ncc2c(C)cc(=O)n(-c3cccc(NC(=O)C4CC4)c3)c2n1 [ZX-HYT-34] | 55.4% | 67.5% | 1.15 ± 0.42 µM | 0.25 ± 0.12 µM | 56.6% |  | 
COc1cc(N2CCN(CCCCCCCCNC(=O)C34CC5CC(CC(C5)C3)C4)CC2)ccc1Nc1ncc2c(C)cc(=O)n(-c3cccc(NC(=O)C4CC4)c3)c2n1 [ZX-HYT-35, (3R,5R,7R)—N-(8-(4-(4-((8-(3-(cyclopropaneformamide)phenyl)-5-methyl-7-oxy-7,8-dihydropyridino [2,3-d-dipyrimidin-2-yl)amino)-3-methoxyphenyl)piperazin-1-yl)octyl)adamantan-1-carboxylamide] | 42.2% | 39.1% | 2.59 ± 0.2 µM | 0.32 ± 0.04 µM | 43.4% |  | 
COc1cc(OCCOCCCCCCCCCCCCNC(=O)CC23CC4CC(CC(C4)C2)C3)ccc1Nc1ncc2c(C)cc(=O)n(-c3cccc(NC(=O)C4CC4)c3)c2n1 [ZX-HYT-27, N-(3-(2-(4-(2-((12-(2-(((3R, 5R, 7R)-adamantan-1-yl)acetylamino)dodecyl)oxy)ethoxy)-2-methoxyphenyl)amino)-5-methyl-7-oxypyridino [2,3-d]pyrimidin-8 (7H)-yl)phenyl) cyclopropaneformamide] | 0% | 30.2% | 7.84 ± 1.35 µM | 1.67 ± 0.69 µM | 76.3% |  | 
COc1cc(N2CCN(CCCCCCCCCCCCNC(=O)CC34CC5CC(CC(C5)C3)C4)CC2)ccc1Nc1ncc2c(C)cc(=O)n(-c3ccccc3)c2n1 [ZX-HYT-36, 2-((3R, 5R, 7R)-adamantan-1-yl)-N-(12-(4-(3-methoxy-4-((5-methyl-7-oxy-8-phenyl-7,8))-dihydropyridino [2,3-d]pyrimidin-2-yl)amino)phenyl) piperazin-1-yl) dodecyl) acetamide] | 0% | 0% | 0.219 ± 0.0782 µM | 0.107 ± 0.008 µM | 12.3% |  | 
COc1cc(N2CCN(CCCCCCCCCCCCNC(=O)CC34CC5CC(CC(C5)C3)C4)CC2)ccc1Nc1ncc2c(C)cc(=O)n([C@H]3CC[C@@H](NC(=O)C4CC4)C3)c2n1 [ZX-HYT-20, N-((1R,3S)-3-(2-((4-(4-(12-(2-((3R, 5R, 7R)-adamantan-1-yl)acetylamino)dodecyl)piperazin-1-yl)-2-methoxyphenyl)amino)-5-methyl-7-oxypyridino [2,3-d]pyrimidin-8 (7H)-yl)cyclopentyl) cyclopropane formamide] |  |  |  |  |  | 0.295 µM | 0.106 µM
COc1cc(N2CCN(CCCCCCCCNC(=O)CC(C)(C)C)CC2)ccc1Nc1ncc2c(C)cc(=O)n(-c3cccc(NC(=O)C4CC4)c3)c2n1 [ZX-HYT-33] | 0% | 43.7% | 2.31 ± 0.52 µM | 0.44 ± 0.14 µM | 55.3% |  | 
COc1cc(N2CCN(CCCCCCCCNC(=O)C3C[C@H]4CC[C@@H]3C4)CC2)ccc1Nc1ncc2c(C)cc(=O)n(-c3cccc(NC(=O)C4CC4)c3)c2n1 (stereo partly drawn) [ZX-HYT-61] | 14.2% | 31.5% | 0.0738 ± 0.0456 µM | 0.103 ± 0.0592 µM | 15.9% |  | 
COc1cc(N2CCN(CCCCCCCCNC(=O)CC34CC5CC(CC(C5)C3)C4)CC2)ccc1Nc1ncc2c(C)cc(=O)n(-c3cccc(NC(=O)C(C)(C)C)c3)c2n1 [ZX-HYT-48, N-(3-(2-((4-(4-(8-(2-((3R, 5R, 7R)-adamantan-1-yl)acetylamino)octyl)piperazin-1-yl)-2-methoxyphenyl))amino)-5-methyl-7-oxypyridino [2,3-d]pyrimidin-8 (7H)-yl) phenyl) neopentanamide] | 0% | 34.2% | 0.187 ± 0.0357 µM | 0.105 ± 0.052 µM | 60.6% |  | 
CCC(=O)Nc1cccc(-n2c(=O)cc(C)c3cnc(Nc4ccc(N5CCN(CCCCCCCCNC(=O)CC67CC8CC(CC(C8)C6)C7)CC5)cc4OC)nc32)c1 [ZX-HYT-49, N-(3-(2-((4-(4-(8-(2-((3R, 5R, 7R)-adamantan-1-yl)acetylamino)octyl)piperazin-1-yl)-2-methoxyphenyl))amino)-5-methyl-7-oxypyridino [2,3-d]pyrimidin-8 (7H)-yl) phenyl) propionamide] | 0% | 26.1% | 0.0958 ± 0.0126 µM | 0.0346 µM | 61.6% |  | 
COc1cc(N2CCN(CCCCCCCCCCCCNC(=O)CC34CC5CC(CC(C5)C3)C4)CC2)ccc1Nc1ncc2c(C)cc(=O)n(-c3cccc(N(C)C)c3)c2n1 [ZX-HYT-43, 2-((3R, 5R, 7R)-adamantan-1-yl)-N-(12-(4-(4-((8-(3-(dimethylamino)phenyl)-5-methyl-7-oxy-7,8-dihydropyridino [2,3-d]pyrimidin-2-yl)amino)-3-methoxyphenyl)piperazin-1-yl)dodecyl) acetamide] | 57.5% | 30.5% | 0.257 ± 0.0423 µM | 0.172 ± 0.0204 µM | 37.9% |  | 
COc1cc(N2CCN(CCCCCCCCCCCCNC(=O)CC34CC5CC(CC(C5)C3)C4)CC2)ccc1Nc1ncc2c(C)cc(=O)n(-c3cccc(OCC4CC4)c3)c2n1 [ZX-HYT-40, 2-((3R, 5R, 7R)-adamantan-1-yl)-N-(12-(4-(4-((8-(3-(cyclopropylmethoxy)phenyl)-5-methyl-7-oxo-) 7,8-dihydropyridino [2,3-d]pyrimidin-2-yl)amino)-3-methoxyphenyl)piperazin-1-yl) dodecyl) acetamide] | 32% | 30.7% | 0.0864 ± 0.0296 µM | 0.0609 ± 0.014 µM | 53% |  | 
COc1cc(N2CCN(CCCCCCCCCCCCNC(=O)CC34CC5CC(CC(C5)C3)C4)CC2)ccc1Nc1ncc2c(C)cc(=O)n(-c3cccc(NCC4CNC4)c3)c2n1 [ZX-HYT-44, 2-((3R, 5R, 7R)-adamantan-1-yl)-N-(12-(4-(4-((8-(3-((azacyclobutane-3-ylmethyl)amino)phenyl)-5-methyl-7-oxy-7,8-dihydropyridino [2,3-d]pyrimidin-2-yl)amino)-3-methoxyphenyl)piperazin-1-yl)dodecanyl) acetamide] | 22.4% | 23.6% | 5.39 ± 0.293 µM | 8.09 ± 0.432 µM | 40.1% |  | 
CCCCCCCCN1CCN(c2ccc(Nc3ncc4c(C)cc(=O)n(-c5cccc(NC(=O)C6CC6)c5)c4n3)c(OC)c2)CC1 [ZX-HYT-30, N-(3-(2-((2-methoxy-4-(4-octylpiperazin-1-yl)phenyl)amino)-5-methyl-7-oxypyridino [2,3-d]pyrimidin-8 (7H)-yl)phenyl) cyclopropane formamide] | 40.5% | 37.1% | > 10 µM | 8.84 ± 2.17 µM | 51.9% |  | 
COc1cc(N2CCN(CCCCCCCCN)CC2)ccc1Nc1ncc2c(C)cc(=O)n(-c3cccc(NC(=O)C4CC4)c3)c2n1 [ZX-HYT-31] | 0% | 30.6% | 0.145 ± 0.101 µM | 0.217 ± 0.0367 µM | 55.5% |  | 
